Results on 17 molecules are retold here after patent EP4483954A1 (Masarykova Univerzita, priority 2023, dated 2025).

What all share (type): biochemical
The target in assay [1] is T1, CDKL4(h) (Homo sapiens, UniProt Q5MAI5).
T1 construct: purchased Eurofins (KinaseProfiler)
The assay is described as follows: radiometric kinase assay (KinaseProfiler, Eurofins), CDKL4. Conditions: in vitro radiometric kinase assay, tested at 1 nM to 10 000 nM, no pre-incubation; read-out: inhibitory activities (IC50 values) CDKL4. As for the experimental part:
(§1) The compounds were profiled in the radiometric assays (KinaseProfiler, Eurofins).
(§2) Briefly, kinases were diluted in the buffer shown below prior to addition to the reaction mix: • CDKL3, TAF1L: 20 mM Tris/HCl pH 8.5, 0.2 mM EDTA, 0.1% β-mercaptoethanol, 0.01% Brij-35, 5% glycerol, 1 mg/ml BSA; • Haspin: 15 mM MOPS, 0.75 mM EDTA, 0.0075% Brij-35, 3.75% Glycerol, 150 mM NaCl, 0.1% β-mercaptoethanol, 1 mg/mLBSA; • CDKL4, CLK2, PIM1, TRB2: […], 1 mM EDTA, 0.01% Brij-35, 5% Glycerol, 0.1% β-mercaptoethanol, 1 mg/mL BSA.
(§3) All compounds were prepared to 50x final assay concentration in 100% DMSO. This working stock of the compound was added to the assay well as the first component in the reaction, followed by the remaining components as detailed in the general assay protocols below. There was no pre-incubation step between the compound and the kinase prior to initiation of the reaction.
CDKL4(h) was incubated with 8 mM MOPS pH 7.0, 0.2 mM EDTA, 250 µM RRRFRPASPLRGPPK (SEQ ID NO. 1), 10 mM magnesium acetate and γ-^33P-ATP (specific activity and concentration as required). The reaction was initiated by the addition of the Mg/ATP mix. After incubation for 120 minutes at room temperature, the reaction was stopped by the addition of phosphoric acid to a concentration of 0.5%. An aliquot of the stopped reaction was spotted onto a filter and washed four times for 4 minutes in 0.425% phosphoric acid and once in methanol prior to drying and scintillation counting.
(§4) Kinase activity data were expressed as the percent remaining kinase activity in tested samples compared to the vehicle (DMSO) reactions. The compounds were tested at the following concentrations: 1 nM, 3 nM, 10 nM, 30 nM, 100 nM, 300 nM, 1000 nM, 3000 nM, and 10 000 nM; IC50 values and curve fits were then obtained.

Assay [2] has as its target T2, CLK2 (h) (Homo sapiens, UniProt P49760).
T2 construct: purchased Eurofins (KinaseProfiler)
The experiment in a line: radiometric kinase assay (KinaseProfiler, Eurofins), CLK2. The note with it: in vitro radiometric kinase assay, tested at 1 nM to 10 000 nM, no pre-incubation; read-out: inhibitory activities (IC50 values) CLK2. How it is done: as §1, §2, §3
CLK2 (h) was incubated with 8 mM MOPS pH 7.0, 0.2 mM EDTA, 20 µM […](p)EDEEE (SEQ ID NO. 2), 10 mM magnesium acetate and γ-^33P-ATP (specific activity and concentration as required). The reaction was initiated by the addition of the Mg/ATP mix. After incubation for 40 minutes at room temperature, the reaction was stopped by the addition of phosphoric acid to a concentration of 0.5%. An aliquot of the reaction was then spotted onto a filter and washed four times for 4 minutes in 0.425% phosphoric acid and once in methanol prior to drying and scintillation counting.
as §4

Assay [3] addresses T3, Haspin (h) (Homo sapiens, UniProt Q8TF76).
T3 construct: purchased Eurofins (KinaseProfiler)
T3 sequence (Q8TF76 1-798): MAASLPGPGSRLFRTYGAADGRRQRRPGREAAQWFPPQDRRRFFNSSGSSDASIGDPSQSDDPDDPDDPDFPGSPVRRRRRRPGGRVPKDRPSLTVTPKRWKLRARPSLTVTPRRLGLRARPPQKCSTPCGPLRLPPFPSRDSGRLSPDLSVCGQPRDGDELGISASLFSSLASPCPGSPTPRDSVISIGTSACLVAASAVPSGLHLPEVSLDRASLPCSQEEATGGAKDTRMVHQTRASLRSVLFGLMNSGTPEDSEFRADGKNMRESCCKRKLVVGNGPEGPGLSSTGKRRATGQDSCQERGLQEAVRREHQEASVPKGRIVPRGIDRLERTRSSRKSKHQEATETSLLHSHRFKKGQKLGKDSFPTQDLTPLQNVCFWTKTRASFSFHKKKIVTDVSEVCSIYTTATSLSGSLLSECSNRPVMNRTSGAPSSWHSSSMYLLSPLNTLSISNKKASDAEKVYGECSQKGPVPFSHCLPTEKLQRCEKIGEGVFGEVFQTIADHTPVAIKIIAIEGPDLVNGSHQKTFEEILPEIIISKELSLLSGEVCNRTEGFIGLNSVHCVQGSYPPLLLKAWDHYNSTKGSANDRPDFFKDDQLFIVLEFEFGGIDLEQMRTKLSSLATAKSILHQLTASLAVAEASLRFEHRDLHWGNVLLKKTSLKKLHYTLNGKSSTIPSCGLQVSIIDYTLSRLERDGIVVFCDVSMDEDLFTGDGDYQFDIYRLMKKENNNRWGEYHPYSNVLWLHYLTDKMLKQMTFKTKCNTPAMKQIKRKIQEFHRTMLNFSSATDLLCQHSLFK
The experiment in a line: radiometric kinase assay (KinaseProfiler, Eurofins), Haspin. Conditions: in vitro radiometric kinase assay, tested at 1 nM to 10 000 nM, no pre-incubation; read-out: inhibitory activities (IC50 values) Haspin. In short, it runs like this: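 Human Haspin in 8 mM MOPS pH 7.0 with 500 µM RARTLSFAEPG, 10 mM Mg acetate and γ-33P-ATP; compound added without preincubation. Reaction ran 40 min at room temperature, then filter-bound 33P was counted. Nine concentrations from 1 to 10 000 nM gave % remaining activity versus DMSO, and IC50 came from curve fit.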

The target in assay [4] is T4, PIM1 (h) (Homo sapiens, UniProt P11309).
T4 construct: purchased Eurofins (KinaseProfiler)
T4 sequence (P11309 whole entry): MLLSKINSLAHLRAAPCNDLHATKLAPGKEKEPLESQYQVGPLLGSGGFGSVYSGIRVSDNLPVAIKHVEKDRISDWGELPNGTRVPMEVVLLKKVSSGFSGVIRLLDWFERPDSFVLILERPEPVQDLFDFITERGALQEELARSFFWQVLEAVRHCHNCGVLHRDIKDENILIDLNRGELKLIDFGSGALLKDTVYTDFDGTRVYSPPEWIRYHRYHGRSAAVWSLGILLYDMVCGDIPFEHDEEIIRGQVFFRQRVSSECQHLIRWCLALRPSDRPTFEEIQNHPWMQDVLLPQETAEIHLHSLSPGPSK
The assay is described as follows: radiometric kinase assay (KinaseProfiler, Eurofins), PIM1. The note with it: in vitro radiometric kinase assay, tested at 1 nM to 10 000 nM, no pre-incubation; read-out: inhibitory activities (IC50 values) PIM1. How it is done: as §1, §2, §3
PIM1 (h) was incubated with 8 mM MOPS pH 7.0, 0.2 mM EDTA, 100 µM KKRNRTLTV (SEQ ID NO. 4), 10 mM magnesium acetate and γ-^33P-ATP (specific activity and concentration as required). The reaction was initiated by the addition of the Mg/ATP mix. After incubation for 40 minutes at room temperature, the reaction was stopped by the addition of phosphoric acid to a concentration of 0.5%. An aliquot of the reaction was then spotted onto a filter and washed four times for 4 minutes in 0.425% phosphoric acid and once in methanol prior to drying and scintillation counting.
as §4

T1 sequence (Q5MAI5 whole entry): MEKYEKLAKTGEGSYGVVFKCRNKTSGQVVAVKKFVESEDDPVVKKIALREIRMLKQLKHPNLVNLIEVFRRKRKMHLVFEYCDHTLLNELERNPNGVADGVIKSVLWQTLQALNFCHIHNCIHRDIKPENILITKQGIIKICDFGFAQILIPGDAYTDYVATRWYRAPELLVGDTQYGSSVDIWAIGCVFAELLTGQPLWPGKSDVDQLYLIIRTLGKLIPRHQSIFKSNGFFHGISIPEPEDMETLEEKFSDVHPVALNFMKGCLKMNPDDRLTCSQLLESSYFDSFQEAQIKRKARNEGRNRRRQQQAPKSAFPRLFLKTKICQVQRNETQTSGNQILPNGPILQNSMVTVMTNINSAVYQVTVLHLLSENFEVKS
T2 sequence (P49760 whole entry): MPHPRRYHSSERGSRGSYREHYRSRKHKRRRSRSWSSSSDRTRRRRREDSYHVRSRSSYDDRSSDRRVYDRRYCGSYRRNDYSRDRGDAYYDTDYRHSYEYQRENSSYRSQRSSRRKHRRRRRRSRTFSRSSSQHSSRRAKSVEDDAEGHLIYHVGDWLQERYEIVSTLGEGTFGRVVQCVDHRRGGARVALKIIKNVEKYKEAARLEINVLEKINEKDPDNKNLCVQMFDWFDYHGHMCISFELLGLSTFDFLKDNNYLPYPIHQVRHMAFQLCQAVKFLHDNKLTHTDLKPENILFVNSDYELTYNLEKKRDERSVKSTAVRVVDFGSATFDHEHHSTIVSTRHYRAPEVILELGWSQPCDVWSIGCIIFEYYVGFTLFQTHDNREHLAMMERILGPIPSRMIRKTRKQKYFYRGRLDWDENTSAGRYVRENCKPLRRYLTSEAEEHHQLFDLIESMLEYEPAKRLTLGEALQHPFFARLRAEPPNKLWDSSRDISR

What is called IC50 is the concentration at which inhibition is half-maximal. With `Cn1cc(-c2ccc3scc(-c4ccns4)c3n2)cn1` [Preparative Example 67, 3-(isothiazol-5-yl)-5-(1-methyl-1H-pyrazol-4-yl)thieno[3,2-b]pyridine], the IC50 in assay [1] was 20 to 99 nM; in assay [2], 500 to 3000 nM; in assay [3], 20 to 99 nM; in assay [4] it was 100 to 499 nM.
Take `Cn1cc(-c2ccc3scc(-c4cncs4)c3n2)cn1` [Preparative Example 69, 5-(1-methyl-1H-pyrazol-4-yl)-3-(thiazol-5-yl)thieno[3,2-b]pyridine]: the concentration for half-maximal inhibition (IC50) was in the range of 100 to 499 nM in assay [1], 500 to 3000 nM in assay [2], 20 to 99 nM in assay [3] and 100 to 499 nM in assay [4].
For `Cc1nsc(-c2csc3ccc(-c4cnn(C)c4)nc23)n1` [Preparative Example 71, 3-(3-methyl-1,2,4-thiadiazol-5-yl)-5-(1-methyl-1H-pyrazol-4-yl)thieno[3,2-b]pyridine], the IC50 in assay [1] is 100 to 499 nM; in assay [2], 500 to 3000 nM; in assay [3], 20 to 99 nM; in assay [4], 100 to 499 nM.
As to `Cn1cc(-c2ccc3scc(C(=O)c4ccccc4)c3n2)cn1` [Preparative Example 73, (5-(1-methyl-1H-pyrazol-4-yl)thieno[3,2-b]pyridin-3-yl)(phenyl)-methanone], the IC50 in assay [1], in assay [2], in assay [3] and in assay [4] was 3000 to 10000 nM each time.
As for `Cn1cc(-c2ccc3scc(C(O)c4ccccc4)c3n2)cn1` (centres unmarked) [Preparative Example 74], the IC50 in assay [1] fell in the range of 100 to 499 nM; in assay [2], 500 to 3000 nM; in assay [3], 3000 to 10000 nM; in assay [4] it was 500 to 3000 nM.
Regarding `Cn1cc(-c2ccc3scc(Nc4ccccc4)c3n2)cn1` [Preparative Example 76, 5-(1-methyl-1H-pyrazol-4-yl)-N-phenylthieno[3,2-b]pyridin-3-amine], the IC50 in assay [1] was 20 to 99 nM; in assay [2] it was 500 to 3000 nM; in assay [3], 100 to 499 nM; in assay [4], 100 to 499 nM.
For the molecule `CCn1cc(-c2ccc3scc(-c4ccncc4)c3n2)cn1` [Preparative Example 77, 5-(1-ethyl-1H-pyrazol-4-yl)-3-(pyridin-4-yl)thieno[3,2-b]pyridine], the IC50 in assay [1] is 500 to 3000 nM; in assay [2], 3000 to 10000 nM; in assay [3] it was 500 to 3000 nM; in assay [4], 500 to 3000 nM.
Turning to `FC(F)(F)n1cc(-c2ccc3scc(-c4ccncc4)c3n2)cn1` [Preparative Example 78, 3-(pyridin-4-yl)-5-(1-(trifluoromethyl)-1H-pyrazol-4-yl)thieno[3,2-b]pyridine], the IC50 lay within 500 to 3000 nM in assay [1], 3000 to 10000 nM in assay [2], 3000 to 10000 nM in assay [3] and 3000 to 10000 nM in assay [4].
For `CC(C)n1cc(-c2ccc3scc(-c4ccncc4)c3n2)cn1` [Preparative Example 79, 5-(1-isopropyl-1H-pyrazol-4-yl)-3-(pyridin-4-yl)thieno[3,2-b]pyridine], the half-maximal inhibitory concentration (IC50) lay in the range of 3000 to 10000 nM in assay [1], 3000 to 10000 nM in assay [2], 500 to 3000 nM in assay [3] and 3000 to 10000 nM in assay [4].
Take `c1ccc(Cn2cc(-c3ccc4scc(-c5ccncc5)c4n3)cn2)cc1` [Preparative Example 81, 5-(1-benzyl-1H-pyrazol-4-yl)-3-(pyridin-4-yl)thieno[3,2-b]pyridine]: the IC50 in assay [1] is 500 to 3000 nM; in assay [2], 3000 to 10000 nM; in assay [3], 100 to 499 nM; in assay [4] it was 100 to 499 nM.
`Cn1ncc(-c2ccc3scc(-c4ccncc4)c3n2)c1CC1CC1` [Preparative Example 82, 5-(5-(cyclopropylmethyl)-1-methyl-1H-pyrazol-4-yl)-3-(pyridin-4-yl)thieno[3,2-b]pyridine]: the IC50 was in the range of 500 to 3000 nM in assay [1], 500 to 3000 nM in assay [2], 100 to 499 nM in assay [3] and 20 to 99 nM in assay [4].
Take `Cn1cc(-c2ccc3scc(-c4ccncc4)c3n2)c(NC(=O)OC(C)(C)C)n1` [Preparative Example 83, tert-butyl(1-methyl-4-(3-(pyridin-4-yl)thieno[3,2-b]pyridin-5-yl)-1H-pyrazol-3-yl)carbamate]: the IC50 was 500 to 3000 nM in assay [1], 3000 to 10000 nM in assay [2], 3000 to 10000 nM in assay [3] and 3000 to 10000 nM in assay [4].
In the case of `Cn1cc(-c2ccc3scc(-c4ccncc4)c3n2)c(N)n1` [Preparative Example 84, 1-methyl-4-(3-(pyridin-4-yl)thieno[3,2-b]pyridin-5-yl)-1H-pyrazol-3-amine], the IC50 in assay [1] lay within 500 to 3000 nM; in assay [2] it was 3000 to 10000 nM; in assay [3], 3000 to 10000 nM; in assay [4], 3000 to 10000 nM.
Take `Cc1nn(C)c(C)c1-c1ccc2scc(-c3ccncc3)c2n1` [Preparative Example 85, 3-(pyridin-4-yl)-5-(1,3,5-trimethyl-1H-pyrazol-4-yl)thieno[3,2-b]pyridine]: the IC50 in assay [1] lay in the range of 500 to 3000 nM; in assay [2], 3000 to 10000 nM; in assay [3], 500 to 3000 nM; in assay [4], 3000 to 10000 nM.
For the molecule `Cn1ccc(-c2ccc3scc(-c4ccncc4)c3n2)n1` [Preparative Example 86, 5-(1-methyl-1H-pyrazol-3-yl)-3-(pyridin-4-yl)thieno[3,2-b]pyridine], the IC50 in assay [1] is 3000 to 10000 nM; in assay [2], 3000 to 10000 nM; in assay [3], 20 to 99 nM; in assay [4], 3000 to 10000 nM.
With `Cn1nccc1-c1ccc2scc(-c3ccncc3)c2n1` [Preparative Example 90, 5-(1-methyl-1H-pyrazol-5-yl)-3-(pyridin-4-yl)thieno[3,2-b]pyridine], the IC50 in assay [1] was in the range of 500 to 3000 nM; in assay [2], 3000 to 10000 nM; in assay [3], 500 to 3000 nM; in assay [4] it was 3000 to 10000 nM.
As for `Cn1cncc1-c1ccc2scc(-c3ccncc3)c2n1` [Preparative Example 91, 5-(1-methyl-1H-imidazol-5-yl)-3-(pyridin-4-yl)thieno[3,2-b]pyridine], the IC50 in assay [1] fell in the range of 500 to 3000 nM; in assay [2] it was 500 to 3000 nM; in assay [3] it was 20 to 99 nM; in assay [4] it was 100 to 499 nM.
